From patent publication EP1218012B1, “USE OF ALPROSTADIL (PROSTAGLANDIN E1) FOR PRODUCING A MEDICAMENT FOR ANGIONEOGENESIS” (Mehrabi, Mohammad Reza, priority 1999, dated 2001)

Columns and labels:
VEGF = assay: VEGF-positive capillaries in explanted hearts (immunohistochemistry); type: in vivo, Patienten
Description: Um die Frage zu beantworten, ob nun die Alprostadil (PGE1)-Infusionstherapie […] HTX die […] von Patienten mit vorangegangener Alprostadil (PGE 1)-Infusionstherapie und von Patienten ohne alprostadil (PGE 1)-Therapie immunhistochemisch untersucht und die […]. Jedes […] Herz wurde in drei gleich große Stücke, nämlich in Spitze, mittleren und […]. Die […] transmural durch den […] immunohistochemische Analysen wurde sofort […] in Formaldehyd nach der üblichen Methode konserviert. Die […] wurde getrennt im Subepicardium, Myocardium und dem Subendocardium bestimmt. Die Bestimmung […] 1,mm^2 wurde getrennt anhand von anti-CD34, von Willebrand-Faktor (vwf), vascular-endothelial-growth-factor (VEGF) , anti-Ki 67 (MIB 1) und Sirius Rot, immunhistochemisch […]. VEGF ist beschrieben als spezifischer Wachstumsfaktor für Endothelzellen. Alprostadil (PGE 1)-behandelte Patienten zeigten bedeutend mehr VEGF-positive […] als die Kontrollgruppe (Fig.4) in allen drei untersuchten Abschnittsebenen (Subepicardium: 101,2 ± 5,5/mm^2 gegenüber 38.1 ± 7,2-VEGF-positive Zellen/mm^2, p <0,0001; Myocardium 76,2 ± 4,9/mm^2 gegenüber 20,6 ± 4,9/mm^2, p <0,0001; Subendocardium: 89,1 ± 5,7/mm^2 gegenüber 27,8 ± 5,1/mm^2, p <0,0001). Die Ergebnisse sind auch in Fig.6D, 8E und 8F dargestellt.

MIB-1 (anti-Ki67) = MIB-1 (anti-Ki67) positive cells in explanted hearts (proliferation marker); type: in vivo, Patienten
Description: Um die Frage zu beantworten, ob nun die Alprostadil (PGE1)-Infusionstherapie […] HTX die […] von Patienten mit vorangegangener Alprostadil (PGE 1)-Infusionstherapie und von Patienten ohne alprostadil (PGE 1)-Therapie immunhistochemisch untersucht und die […]. Jedes […] Herz wurde in drei gleich große Stücke, nämlich in Spitze, mittleren und […]. Die […] transmural durch den […] immunohistochemische Analysen wurde sofort […] in Formaldehyd nach der üblichen Methode konserviert. Die […] wurde getrennt im Subepicardium, Myocardium und dem Subendocardium bestimmt. Die Bestimmung […] 1,mm^2 wurde getrennt anhand von anti-CD34, von Willebrand-Faktor (vwf), vascular-endothelial-growth-factor (VEGF) , anti-Ki 67 (MIB 1) und Sirius Rot, immunhistochemisch […]. MIB-1 (anti-Ki67), ist ein Antikörper, der nur […], die nicht in der GO-Phase des Zellzyklus sind und wird üblicher Weise als Mitose- oder Proliferationsmarker eingesetzt. Er zeigt […] Reaktion bei mitotischen Zellen. Bei der Gruppe der Patienten mit Alprostadil(PGE 1)-Infusionstherapie war die Anzahl der MIB-1 positiven Zellen (Fig.3) in allen […] des Herzmuskels deutlich höher verglichen mit der Kontrollgruppe: (Subepicardium: 20,22 ± 4,87 pro mm^2 gegenüber 8,11 ± 2,67 pro mm^2, p <0,0001; Myocardium: 15,44 ± 4,64 pro mm^2 gegenüber 5,78 ± 2,11 pro mm^2, p <0,0001; Subendocardium: 17,84 ± 4,23 pro mm^2 gegenüber 6,89 ± 2,21 pro mm2). Die Ergebnisse sind auch in Fig.6C, 8G und 8H dargestellt.

Patienten mit CMP [1] = assay: Capillary density in transmural sections of explanted hearts (immunohistochemistry); type: in vivo; settings: for Kapillardichte: explanted hearts after infusion therapy
Description: Um die Frage zu beantworten, ob nun die Alprostadil (PGE1)-Infusionstherapie […] HTX die […] von Patienten mit vorangegangener Alprostadil (PGE 1)-Infusionstherapie und von Patienten ohne alprostadil (PGE 1)-Therapie immunhistochemisch untersucht und die […]. Jedes […] Herz wurde in drei gleich große Stücke, nämlich in Spitze, mittleren und […]. Die […] transmural durch den […] immunohistochemische Analysen wurde sofort […] in Formaldehyd nach der üblichen Methode konserviert. Die […] wurde getrennt im Subepicardium, Myocardium und dem Subendocardium bestimmt. Die Bestimmung […] 1,mm^2 wurde getrennt anhand von anti-CD34, von Willebrand-Faktor (vwf), vascular-endothelial-growth-factor (VEGF) , anti-Ki 67 (MIB 1) und Sirius Rot, immunhistochemisch […]. Die […] Subepicardium, Myocardium und Subendocardium von transmuralen […] wurde quantitativ bestimmt und verglichen. Patienten, die eine Alprostadil (PGE 1)- Infusionen […]. Die […] Subepicardium, Myocardium und Subendocardium von der Kontrollgruppe betrug 608,56 ± 91,32 […]), 542,44 ± 197,20 […]^2 (sEndo), und 452,22 - 101,99 […]^2 (Myo) in den drei transmuralen-[…]. Alprostadil (PGE 1)-behandelte Patienten hatten im Vergleich dazu mit 1168,11 ± 165,04 […]), 1066,00 ± 94,63 […]^2 (SEndo), und 974,56 ± 87,12 […]^2 (Myocard), ungefähr 50% […]. Untersuchung hinsichtlich spezifischer immunohistochemischer […]: […]

[2] = tested on: Patienten mit dilatativer CMP; assay: Fibrosis degree and heart muscle fraction (Sirius red staining) in explanted hearts; type: in vivo; settings: patients with dilated CMP
Description: Die […] wurde getrennt im Subepicardium, Myocardium und dem Subendocardium bestimmt. Die Bestimmung […] 1,mm^2 wurde getrennt anhand von anti-CD34, von Willebrand-Faktor (vwf), vascular-endothelial-growth-factor (VEGF) , anti-Ki 67 (MIB 1) und Sirius Rot, immunhistochemisch […]. Die Bestimmung des Fibrosegrads und des Herzmuskelanteils bei Alprostadil (PGE 1)-behandelten Patienten (Fig.5) gegenüber der Kontrollgruppe zeigte, dass die Alprostadil (PGE1)- Infusionstherapie den Fibrosegrad bei […] CMP […] (15,35 ± 10,32% gegenüber 6,89 ± 3,59%, p <0,05, bei einem vergleichbaren Herzmuskelanteil (72,69 ± 5,25% gegenüber 68,75 ± 6,23%).

[3] = tested on: Von Willebrand Faktor (vWf); assay: Anti-vWf (factor VIII related antigen) reactive endothelium in explanted hearts (immunohistochemistry); type: in vivo, Patienten
Description: Um die Frage zu beantworten, ob nun die Alprostadil (PGE1)-Infusionstherapie […] HTX die […] von Patienten mit vorangegangener Alprostadil (PGE 1)-Infusionstherapie und von Patienten ohne alprostadil (PGE 1)-Therapie immunhistochemisch untersucht und die […]. Jedes […] Herz wurde in drei gleich große Stücke, nämlich in Spitze, mittleren und […]. Die […] transmural durch den […] immunohistochemische Analysen wurde sofort […] in Formaldehyd nach der üblichen Methode konserviert. Die […] wurde getrennt im Subepicardium, Myocardium und dem Subendocardium bestimmt. Die Bestimmung […] 1,mm^2 wurde getrennt anhand von anti-CD34, von Willebrand-Faktor (vwf), vascular-endothelial-growth-factor (VEGF) , anti-Ki 67 (MIB 1) und Sirius Rot, immunhistochemisch […] Marker wurde Faktor VIII immunhistochemisch untersucht. Die Herzen von CMP-Patienten nach Alprostadil(PGE 1)-Infusionstherapie zeigten bedeutend […] Endothelien (Abb.2) verglichen mit der Kontrollgruppe (Subepicardium: 425,56 ± 134.17 mm^2 gegenüber 192,22 ± 77,88 mm^2-Zellen, p <0,001; Myocardium: 360,00 ± 52,31 mm^2 gegenüber 159,89 ± 61.00 mm^2 p <0,0001; Subendocardium: 408,00 ± 80,00 mm^2 gegenüber 163,89 ± 47,52 mm^2, p <0,0001). Die Ergebnisse sind auch in Fig.6B, 8C und 8D dargestellt.

Patienten = assay: Hypertrophy: muscle count and percent muscle fraction per mm^2; type: in vivo; settings: treated patients
Description: In PGE1-behandelten Patienten wurden Muskelzahl/mm^2 mit prozentuellem Muskelanteil/mm^2 bestimmt und mit unbehandelten Patienten und gesunden Kontrollen verglichen. Die Ergebnisse sind in der nachfolgenden Tabelle angegeben.

Patienten mit CMP [4] = assay: Clinical infusion therapy study in CMP patients awaiting heart transplantation (haemodynamics, clinical state, maximum tolerated dose); type: in vivo
Description: Patienten mit CMP wurden für eine Herztranslation (HTX) angemeldet und medikamentös mit ACE-Hemmern, β-Blocker, Diuretika und Digitalis behandelt.
In einer vorangegangenen Studie erhielten mehrere Patienten mit Kardiomyopathie, darunter 9 Patienten mit dilatativer CMP vor einer HTX zusätzlich eine Alprostadil (PGE 1)-Infusionstherapie.
Die Einschlusskriterien für die Alprostadil (PGE 1)-Studie waren: • a. Patienten waren in ihrer täglichen Aktivität schwerwiegend eingeschränkt, obwohl sie eine maximale oralmedikamentöse Therapie mit ACE-Hemmer (Angiotensin-Converting-Enzym-Antagonisten), Diuretika und Digitalis bekamen. • b. Die Hämodynamik der Patienten zeigte einen niedrigen Herz-Index (< 2,5 L/min/m2) und einen höheren PCWP (pulmonory capillary wedge pressure) > 20 mm HG). • c. CMP-Patienten, die einen erhöhten peripheren Gefäßwiderstand aufweisen.
Die Infusionstherapie erfolgte unter laufender Messung der hämodynamischen Parameter. […] In dieser klinisch-experimentellen Studie wurde die Alprostadil (PGE1)-Infusionstherapie bei Patienten im Endstadium der Herizinsuffizienz im Sinne einer adjuvanten Therapie bis zur HTX verwendet.
Die Alprostadil (PGE1)-Infusionen erfolgten über einen zentralen Rechtsherzkatheter (Hickman-Katheter) mit einer anfänglichen Dosis von 2,5 ng/kg/min, die dann bis zur maximal tolerierten Dosis (MTD) gesteigert wurde. MTD war die Dosis, bei der eine der folgenden Nebenwirkungen auftraten: Muskelschmerzen, Knochenschmerzen, Blutdruckabfall, Übelkeit, Erbrechen, Durchfall, Kopfschmerzen oder andere Nebvenwirkungen. Unter der MTD (29 ± 1 ng/kg/min) wurden die hämodynamischen Parameter dokumntiert. Die MTD wurde in den folgenden 12 Stunden halbiert und nach der Stabilisierung der Hämodynamik wurde die Therapie mit einer tragbaren Pumpe zu Hause fortgesetzt.

Tierversuche = settings: infused directly into hepatic veins, treated group; cited from earlier work
CD 34 = assay: Anti-CD34 reactive endothelium in explanted hearts (immunohistochemistry); type: in vivo, Patienten
Description: Um die Frage zu beantworten, ob nun die Alprostadil (PGE1)-Infusionstherapie […] HTX die […] von Patienten mit vorangegangener Alprostadil (PGE 1)-Infusionstherapie und von Patienten ohne alprostadil (PGE 1)-Therapie immunhistochemisch untersucht und die […]. Jedes […] Herz wurde in drei gleich große Stücke, nämlich in Spitze, mittleren und […]. Die […] transmural durch den […] immunohistochemische Analysen wurde sofort […] in Formaldehyd nach der üblichen Methode konserviert. Die […] wurde getrennt im Subepicardium, Myocardium und dem Subendocardium bestimmt. Die Bestimmung […] 1,mm^2 wurde getrennt anhand von anti-CD34, von Willebrand-Faktor (vwf), vascular-endothelial-growth-factor (VEGF) , anti-Ki 67 (MIB 1) und Sirius Rot, immunhistochemisch […]. CD 34 wird von allen Endothelzellen im normalen Gewebe exprimiert. CD 34 wird auch zum Nachweis von Endothel bzw. -zellen benutzt. Patienten nach einer Alprostadil (PGE […] Endothel (Fig.1) auf als die Kontrollgruppe (Subepicardium: 599,22 ± 107,17 mm^2 gegenüber 322,89 ± 160,64 mm^2-Zellen, p <0,001; Myocardium: 482,11 ± 79,86 mm^2 vs. 227,22 ± 49,30 mm^2 , p<0.0001; Subendocardium: 482,11 ± 79,86 mm^2 gegenüber 227,22 ± 49,30 mm^2, p <0,0001); Subendocardium: 551,67 ± 107.74 mm^2 gegenüber 308,56 ± 193.86 mm^2, p < 0,01). Die Ergebnisse sind auch in Fig.6A, 8A und 8B dargestellt.

[5] = tested on: Patienten mit chronischer Herzinsuffizien; settings: compared with the dobutamine-treated group; cited from earlier work
[6] = tested on: Patienten mit akutem Leberversagen; settings: treatment begun only 10 days after onset of clinical symptoms; cited from earlier work

CCCCC[C@H](O)/C=C/[C@H]1[C@H](O)CC(=O)[C@@H]1CCCCCCC(=O)O [Alprostadil, Prostaglandin E1]
VEGF-positive Kapillaren/mm^2 (VEGF; Myocardium): 76,2 ± 4,9 /mm^2 | VEGF-positive Kapillaren/mm^2 (VEGF; Subendocardium): 89,1 ± 5,7 /mm^2 | VEGF-positive Kapillaren/mm^2 (VEGF; Subepicardium): 101,2 ± 5,5 /mm^2 | Anzahl der MIB-1 positiven Zellen (MIB-1 (anti-Ki67); Myocardium): 15,44 ± 4,64 pro mm^2 | Anzahl der MIB-1 positiven Zellen (MIB-1 (anti-Ki67); Subendocardium): 17,84 ± 4,23 pro mm^2 | Anzahl der MIB-1 positiven Zellen (MIB-1 (anti-Ki67); Subepicardium): 20,22 ± 4,87 pro mm^2 | Kapillardichte (Patienten mit CMP [1]; Myocardium (Myocard)): 974,56 ± 87,12 Kapillaren/mm^2 | Kapillardichte (Patienten mit CMP [1]; Subendocardium (SEndo)): 1066,00 ± 94,63 Kapillaren/mm^2 | Kapillardichte (Patienten mit CMP [1]; Subepicardium (sEpi)): 1168,11 ± 165,04 Kapillaren/mm^2 | mehr Kapillaren als die Kontrollgruppe (Patienten mit CMP [1]; treated patients versus control group): ~50% | Fibrosegrad [2]: 6,89 ± 3,59% | Herzmuskelanteil [2]: 72,69 ± 5,25% | anti-vWf reaktive Endothelien ([3]; Myocardium): 360,00 ± 52,31 mm^2 | anti-vWf reaktive Endothelien ([3]; Subendocardium): 408,00 ± 80,00 mm^2 | % Muskelanteil/mm^2 (Patienten): 74,9 ± 3,7% | Muskelzahl/mm^2 (Patienten): 982,68 ± 141,43 /mm^2 | klinischer Zustand (Patienten mit CMP [4]; end-stage heart failure, with increased ejection fraction and cardiac output, reduced NYHA stage and pulmonary circulation pressures): deutliche Verbesserung | maximal tolerierte Dosis (MTD) (Patienten mit CMP [4]; infusion via central right-heart catheter, escalated from 2,5 ng/kg/min until side effects occurred): 29 ± 1 ng/kg/min | hämodynamische Parameter im Vergleich zu den Ausgangswerten (Patienten mit CMP [4]; under infusion therapy): deutliche Verbesserung | Leukozyten (serologisch) (Tierversuche): mehr Leukozyten | anti-CD34 reaktives Endothel (CD 34; Myocardium): 482,11 ± 79,86 mm^2 | anti-CD34 reaktives Endothel (CD 34; Subendocardium): 482,11 ± 79,86 mm^2 | anti-CD34 reaktives Endothel (CD 34; Subepicardium): 599,22 ± 107,17 mm^2 | Nierenfunktion (Paraaminohippurat-Clearance, Iothalamat-Clearance) [5]: bessere Nierenwerte | hämodynamischer Effekt [5]: besseren hämodynamischen Effekt | Wirkung bei akutem Leberversagen [6]: keine Wirkung
